Results as given in patent publication US8877748B2, “Heterocyclic fused anthraquinone derivatives, manufacturing method and pharmaceutical composition using thereof” (National Defense Medical Center, priority 2012, dated 2014).
Like-named read-outs stand apart in the source and are kept apart here.

Columns and labels:
TK-10 = assay: NCI one-dose screening, renal cancer TK-10; type: cell-based, human; conditions: 10 μM
IGROV1 = assay: NCI one-dose screening, ovarian cancer IGROV1; type: cell-based, human; conditions: 10 μM
RXF, 393 = assay: NCI one-dose screening, renal cancer RXF, 393; type: cell-based, human; conditions: 10 μM
UACC-257 = assay: NCI one-dose screening, melanoma UACC-257; type: cell-based, human; conditions: 10 μM
SK-MEL-5 = assay: NCI one-dose screening, melanoma SK-MEL-5; type: cell-based, human; conditions: 10 μM
A549/ATCC = assay: NCI one-dose screening, non-small cell lung cancer A549/ATCC; type: cell-based, human; conditions: 10 μM
HOP-62 = assay: NCI one-dose screening, non-small cell lung cancer HOP-62; type: cell-based, human; conditions: 10 μM
NCI-H23 = assay: NCI one-dose screening, non-small cell lung cancer NCI-H23; type: cell-based, human; conditions: 10 μM
HCC-2998 = assay: NCI one-dose screening, colon cancer HCC-2998; type: cell-based, human; conditions: 10 μM
CAKI-1 = assay: NCI one-dose screening, renal cancer CAKI-1; type: cell-based, human; conditions: 10 μM
NCl/ADR-RES = assay: NCI one-dose screening, breast cancer NCl/ADR-RES; type: cell-based, human; conditions: 10 μM; listed under Ovarian cancer
SK-MEL-2 = assay: NCI one-dose screening, melanoma SK-MEL-2; type: cell-based, human; conditions: 10 μM
HCT-116 = assay: NCI one-dose screening, colon cancer HCT-116; type: cell-based, human; conditions: 10 μM
EKVX = assay: NCI one-dose screening, non-small cell lung cancer EKVX; type: cell-based, human; conditions: 10 μM
COLO 205 = assay: NCI one-dose screening, colon cancer COLO 205; type: cell-based, human; conditions: 10 μM
SK-OV-3 = assay: NCI one-dose screening, ovarian cancer SK-OV-3; type: cell-based, human; conditions: 10 μM
UO-31 = assay: NCI one-dose screening, renal cancer UO-31; type: cell-based, human; conditions: 10 μM
human tumor cell lines = assay: NCI one-dose screening, Mean / Delta / Range of growth percent over all tested cell lines; type: cell-based; conditions: 10 μM
MDA-MB-468 = assay: NCI one-dose screening, breast cancer MDA-MB-468; type: cell-based, human; conditions: 10 μM
SF-539 = assay: NCI one-dose screening, CNS cancer SF-539; type: cell-based, human; conditions: 10 μM
[1] = system: PC-3 prostate cancer cell line; assay: SRB assay cell viability, PC-3 prostate cancer cell line; type: cell-based, human
HCT-15 = assay: NCI one-dose screening, colon cancer HCT-15; type: cell-based, human; conditions: 10 μM
MDA, -MB-435 = assay: NCI one-dose screening, breast cancer MDA, -MB-435; type: cell-based, human; conditions: 10 μM; listed under Melanoma
MCF7 = assay: NCI one-dose screening, breast cancer MCF7; type: cell-based, human; conditions: 10 μM
MDA-MB-231/ATCC = assay: NCI one-dose screening, breast cancer MDA-MB-231/ATCC; type: cell-based, human; conditions: 10 μM
U251 = assay: NCI one-dose screening, CNS cancer U251; type: cell-based, human; conditions: 10 μM
LOX IMVI = assay: NCI one-dose screening, melanoma LOX IMVI; type: cell-based, human; conditions: 10 μM
OVCAR-8 = assay: NCI one-dose screening, ovarian cancer OVCAR-8; type: cell-based, human; conditions: 10 μM
786-O = assay: NCI one-dose screening, renal cancer 786-O; type: cell-based, human; conditions: 10 μM
NCI-H226 = assay: NCI one-dose screening, non-small cell lung cancer NCI-H226; type: cell-based, human; conditions: 10 μM
T-47D = assay: NCI one-dose screening, breast cancer T-47D; type: cell-based, human; conditions: 10 μM
UACC-62 = assay: NCI one-dose screening, melanoma UACC-62; type: cell-based, human; conditions: 10 μM
HT29 = assay: NCI one-dose screening, colon cancer HT29; type: cell-based, human; conditions: 10 μM
SNB-19 = assay: NCI one-dose screening, CNS cancer SNB-19; type: cell-based, human; conditions: 10 μM
SN12C = assay: NCI one-dose screening, renal cancer SN12C; type: cell-based, human; conditions: 10 μM
M14 = assay: NCI one-dose screening, melanoma M14; type: cell-based, human; conditions: 10 μM
OVCAR-5 = assay: NCI one-dose screening, ovarian cancer OVCAR-5; type: cell-based, human; conditions: 10 μM
SNB-75 = assay: NCI one-dose screening, CNS cancer SNB-75; type: cell-based, human; conditions: 10 μM
NCI-H522 = assay: NCI one-dose screening, non-small cell lung cancer NCI-H522; type: cell-based, human; conditions: 10 μM
BT-549 = assay: NCI one-dose screening, breast cancer BT-549; type: cell-based, human; conditions: 10 μM
MALME-3M = assay: NCI one-dose screening, melanoma MALME-3M; type: cell-based, human; conditions: 10 μM
ACHN = assay: NCI one-dose screening, renal cancer ACHN; type: cell-based, human; conditions: 10 μM
SK-MEL-28 = assay: NCI one-dose screening, melanoma SK-MEL-28; type: cell-based, human; conditions: 10 μM
[2] = Homo sapiens, PC-3 prostate cancer cell line, Table II prints no unit, μM printed, read-out: SRB assay: 50% inhibition of cancer cell proliferation of sample concentration (IC50) of PC-3 prostate cancer cell line
[3] = PC-3 prostate cancer cell line, Table II prints no unit, μM printed, read-out: SRB assay: 50% inhibition of cancer cell proliferation of sample concentration (IC50) of PC-3 prostate cancer cell line

Compound: O=C1c2ccccc2C(=O)c2c1cc(Sc1cccc(Cl)c1)c1nsnc21 [C37, 4-(3-chlorophenyl-thio)anthra[2,1-c][1,2,5] thiadiazol-6,11-dione]
- Growth Percent TK-10 (TK-10): 53.81%
- Growth Percent IGROV1 (IGROV1): −13.50%
- Growth Percent RXF 393 (RXF, 393): −27.84%
- Growth Percent UACC-257 (UACC-257): −84.59%
- Growth Percent SK-MEL-5 (SK-MEL-5): 19.02%
- Growth Percent A549/ATCC (A549/ATCC): 107.48%
- Growth Percent HOP-62 (HOP-62): 42.12%
- Growth Percent NCI-H23 (NCI-H23): −26.91%
- Growth Percent HCC-2998 (HCC-2998): 101.66%
- Growth Percent CAKI-1 (CAKI-1): −3.69%
- Growth Percent NCI/ADR-RES (NCl/ADR-RES): −15.13%
- Growth Percent SK-MEL-2 (SK-MEL-2): −53.17%
- Growth Percent HCT-116 (HCT-116): −67.84%
- Growth Percent EKVX (EKVX): 43.65%
- Growth Percent COLO 205 (COLO 205): 105.98%
- Growth Percent SK-OV-3 (SK-OV-3): 95.44%
- Growth Percent UO-31 (UO-31): −74.79%
- Growth Percent Delta (human tumor cell lines; delta over all cell lines): 86.78%
- Growth Percent Mean (human tumor cell lines; mean over all cell lines): −5.75%
- Growth Percent Range (human tumor cell lines; range over all cell lines): 201.08%
- Growth Percent MDA-MB-468 (MDA-MB-468): −79.19%
- Growth Percent SF-539 (SF-539): −52.72%
- IC50 [1, 2]: 5.64 µM
- Growth Percent HCT-15 (HCT-15): 17.97%
- Growth Percent MDA-MB-435 (MDA, -MB-435): −82.33%
- Growth Percent MCF7 (MCF7): −69.36%
- Growth Percent MDA-MB-231/ATCC (MDA-MB-231/ATCC): −29.08%
- Growth Percent U251 (U251): −69.50%
- Growth Percent LOX IMVI (LOX IMVI): −59.25%
- Growth Percent OVCAR-8 (OVCAR-8): −22.92%
- Growth Percent 786-0 (786-O): −2.06%
- Growth Percent NCI-H226 (NCI-H226): 78.07%
- Growth Percent T-47D (T-47D): −42.26%
- Growth Percent UACC-62 (UACC-62): −64.98%
- Growth Percent HT29 (HT29): 102.17%
- Growth Percent SNB-19 (SNB-19): 56.88%
- Growth Percent SN12C (SN12C): −66.17%
- Growth Percent M14 (M14): −76.44%
- Growth Percent OVCAR-5 (OVCAR-5): 108.55%
- Growth Percent SNB-75 (SNB-75): 26.08%
- Growth Percent NCI-H522 (NCI-H522): 7.18%
- Growth Percent BT-549 (BT-549): 36.21%
- Growth Percent MALME-3M (MALME-3M): −86.56%
- Growth Percent ACHN (ACHN): −92.53%
- Growth Percent SK-MEL-28 (SK-MEL-28): 24.96%

Compound: O=C1c2ccccc2C(=O)c2c1cc(Sc1ccccc1Cl)c1nsnc21 [C32, 4-(2-chloro-phenylthio)anthra[2,1-c] [1,2,5]thiadiazol-6,11-dione]
- IC50 [1, 2]: > 15 µM
- IC50 ([1]; Homo sapiens, PC-3 prostate cancer cells, read-out: IC50 in PC-3 prostate cancer cells (cell viability analysis)): > 15 µM

Compound: O=C1c2ccccc2C(=O)c2c1cc(O)c1nsnc21 [C4, Potassium 6,11-dioxo-6,11-dihydroanthra[2,1-c][1,2,5]thiadiazol-4-olate]
- IC50 [1, 2]: 18.5 µM

Compound: O=C1c2ccccc2C(=O)c2c1cc(Sc1ccc(F)cc1)c1nsnc21 [C28, 4-(4-fluoro-phenyl-thio)anthra[2,1-c] [1,2,5]thiadiazol-6,11-dione]
- IC50 [1, 2]: 6.7 µM

Compound: O=C1c2ccccc2C(=O)c2c1cc(Sc1cccc(Cl)c1Cl)c1nsnc21 [C30, 4-(2,3-dichloro-phenylthio)anthra[2,1-c] [1,2,5]thiadiazol oxazole-6,11-dione]
- IC50 [1, 3]: 11 µM

Compound: CCCCNc1cc2c(c3nsnc13)C(=O)c1ccccc1C2=O [C12, 4-butylamino-anthra[2,1-c][1,2,5] thiadiazol-6,11-dione]
- IC50 [1, 2]: 1.76 µM

Compound: CCN1CCN(c2cc3c(c4nsnc24)C(=O)c2ccccc2C3=O)CC1 [C9, 4-(4-ethyl-piperazin-1-yl)anthra[2,1-c] [1,2,5]thiadiazol-6,11-dione]
- IC50 [1, 2]: 9.43 µM

Compound: O=C1c2ccccc2C(=O)c2c1cc(Sc1cccc(F)c1)c1nsnc21 [C38, 4-(3-fluorophenylthio)anthra[2,1-c][1,2,5] thiadiazol-6,11-dione]
- IC50 [1, 2]: 8.82 µM

Compound: 4-(4-nitrophenyl thio)anthra[2,1-c][1,2,5] thiadiazol oxazole-6,11-dione [C45]
- IC50 [1, 3]: 8.38 µM

Compound: CCCNc1cc2c(c3nsnc13)C(=O)c1ccccc1C2=O [C6, 4-(propylamino)anthra-[2,1-c][1,2,5] thiadiazol-6,11-dione]
- IC50 [1, 2]: 3.25 µM

Compound: Cc1ccc(Sc2cc3c(c4nsnc24)C(=O)c2ccccc2C3=O)cc1 [C44, 4-(4-methyl-phenyl-thio)anthra[2,1-c] [1,2,5]thiadiazol-6,11-dione]
- IC50 [1, 2]: > 15 µM

Compound: 4-(4-ethyl-phenyl-thio)anthra[2,1-c][1,2,5] thiadiazol oxazole-6,11-dione [C54]
- IC50 [1, 3]: 7.5 µM
